Non-standard residues stand in square brackets, D forms with d. Residues, ends and D or L forms follow the SMILES beside them. pGlu = O=C1CC[C@@H](C(=O)O)N1
T1: NCK1 SH3-2 domain (human)
T1 chain: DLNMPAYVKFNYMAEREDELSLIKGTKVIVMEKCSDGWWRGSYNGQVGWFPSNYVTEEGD


Molecular target: T2, SH3-2 domain of NCK1 (Homo sapiens, UniProt P16333)
T2 construct: To amplify the NCK1 SH3-2 domain, the primers; 10xHis tag with TEV site (vector pSF-OXB20-NH2-10HIS) (N, cleaved yes); made in house; host or cells: E. coli C43(DE3)
Assay: Isothermal titration calorimetry (ITC) binding to NCK1 SH3-2 domain
Details: Alanine scanning of the MD17 15-mer peptide; ITC, 25 °C, pH 8.0
Excerpt: Human PTP1B cDNA (NM_002827) and human NCK1 cDNA (NM 006153) were obtained (Origene, MD, USA). PTP1B Primers were designed to amplify the ORFs with added homology to the cut vector (EcoRI-digested pSF-OXB20-NH2-10HIS) in the forward primer sequence. To amplify full-length PTP1B, the primers ptp1b_FL_fwd ([…]) (SEQ ID NO: 159) and ptp1b_FL_rev ([…]) (SEQ ID NO: 160) were used. To amplify truncations of PTP1B, the following primer pairs were used: ptp1b_FL-Fwd and one of Ptplb_323stop_rev (gtgcaggaggagttcgaatt[…]) (SEQ ID NO: 161), ptp1b_344stop_rev ([…]) (SEQ ID NO: 162) or ptp1b_278stop_rev([…]) (SEQ ID NO: 163). To amplify the NCK1 SH3-2 domain, the primers ncklsh32_fwd ([…]) (SEQ ID NO: 164) and ncklsh32_rev ([…]) (SEQ ID NO: 165) were used. The amplified fragments were purified using a DNA clean-up kit according to manufacturer's instructions (QIAquick PCR purification kit, Qiagen).
To produce and purify fusion proteins, a culture was inoculated with 1% of overnight-cultured inoculum. Protein expression was carried out under the conditions described above, scaled up as necessary. Cells expressing the recombinant proteins were harvested in 50 mL tubes by centrifugation and stored at −80 °C. Cells containing the expressed gene product were thawed over ice and resuspended in Extraction buffer (10 mM Tris, pH 7.4 or 10 mM Sodium Phosphate, pH 8.0; 300 mM NaCl, 1 mM DTT or TCEP; 0-10% glycerol and 1 μg lysozyme) and sonicated over ice (4 °C) for 3 min total using pulses of 5 s with 15 s intervals, using a wide probe at 15 amplitude microns (Soniprep 150, MSE). Insoluble material was removed from the lysate by centrifugation at 20K rpm for 20-60 min at 4 °C. Supernatant was filtered through a 0.22 μm PVDF filter membrane and applied to 1-2 5 mL HisTrap FF Crude (Cytiva) prepacked Ni columns and connected to an AKTA explorer. After thorough washing with binding buffer (10 mM Tris, pH 7.4 or 10 mM Sodium Phosphate, pH 8.0; 300 mM NaCl; 1 mM DTT or TCEP and 25 mM Imidazole), protein was eluted using elution buffer (10 mM Tris, pH 7.4 or 10 mM Sodium Phosphate, pH 8.0; 150-300 mM NaCl; 1 mM DTT or TCEP and 250 mM Imidazole). Fractions containing protein of interest were confirmed by SDS PAGE. Protein was diluted with GF buffer (10 mM Tris, pH 7.4 or 10 mM Sodium Phosphate, pH 8.0; 150-300 mM NaCl) and subjected to TEV protease treatment overnight at 4-10 °C. Following proteolytic digestion, HIS-tag and TEV protease were removed by filtration through a clean 5 mL HisTrap FF Crude (Cytiva) prepacked Ni column. Protein was concentrated on a PES ultrafiltration device by centrifugation at 4000 rpm at 4 °C, and protein was polished via a HiPrep S-100 26/60 (Cytiva) using GF buffer (as described above). Purified proteins were concentrated using ultrafiltration, and protein concentration was determined using ultraviolet-visible spectroscopy. The integrity and identity of all proteins were verified by mass spectrographic analysis.
Isothermal titration calorimetry (ITC) was used to determine binding affinities for peptides against the SH3-2 domain of NCK1. Experiments were conducted at 25 °C using either a MicroCal iTC200 or MicroCal PEAQ-ITC calorimeter. The buffer used for all ITC experiments was 10 mM sodium [COMPOUND LEFT OUT] mM sodium chloride (pH=8.0). A series of peptides (concentration 3-7.5 mM) were titrated in to NCK1 SH3-2 domain (concentration 0.125-0.3 mM) using the following conditions: one injection of 0.2 μL followed by 19 injections of 2 μL, 120-150 seconds spacing between injections, at 25 °C. The data were fit using analysis software provided by the manufacturer and affinity values were calculated. The best fitting occurred when the number of sites was between 0.8 and 1.2. The experiments were repeated twice for a total of three times, and the average binding affinity for each peptide was generated. […]

Kd [µM] | Molecule
≤ 300 | Ac-PPPEHIPPPPRAPKR-NH2 [MH004]
≤ 300 | Ac-PPPEHIPPPPRPPAR-NH2 [MH006]
≤ 300 | Ac-PPPEAIPPPPRPPKR-NH2 [MSJ016]

Same assay, conditions: Alanine scanning of the MD20 6-mer peptide; ITC, 25 °C, pH 8.0

Kd [µM] | Molecule
> 1000 | Ac-PRPAKR-NH2 [MH011, Ac-PRPAKR-NH2]

Same assay, conditions: ITC

binding to NCK1 SH3-2 domain (in words) | Molecule
abolished binding | Ac-PRPPK-NH2 [MH022, Ac-PRPPK-NH2]

Same assay, conditions: Modified MD18/MD20 peptides; ITC, 25 °C, pH 8.0

Kd [µM] | Molecule
> 1000 | H-PRPPKR-NH2 [MH080, H-PRPPKR-NH2]
≤ 300 | CCNC(=O)[C@H](CCCNC(=N)N)NC(=O)[C@H](CCCCN)NC(=O)[C@@H]1CCCN1C(=O)[C@@H]1CCCN1C(=O)[C@H](CCCNC(=N)N)NC(=O)[C@@H]1CCCN1C(C)=O [MH045, Ac-PRPPKR-NHEt] (Ac-PRPPKR-NHEt)
> 1000 | Ac-PPRPPKK-NH2 [MH076, Ac-PPRPPKK-NH2]
> 1000 | N=C(N)NCCC[C@H](NC(=O)[C@H](CCCCN)NC(=O)[C@@H]1CCCN1C(=O)[C@@H]1CCCN1C(=O)[C@H](CCCNC(=N)N)NC(=O)[C@@H]1CCC(=O)N1)C(N)=O [MH044, H-Pyr-RPPKR-NH2] ([pGlu]RPPKR-NH2)

Same assay, conditions: N- or C-terminal extensions; ITC, 25 °C, pH 8.0; 30-mers tested one to three times

Kd [µM] | Molecule
≤ 300 | Ac-PPRPPKRI-NH2 [MH063]
≤ 300 | Ac-PPPEHIPPPPRPPKRILEPHNGKCR-NH2 [MH134]
≤ 300 | Ac-PPPEHIPPPPRPPKRILEPHNGKCREFFPN-NH2 [MH137]

Same assay, conditions: Peptide truncation analysis; ITC, 25 °C, pH 8.0

Kd [µM] | Molecule
> 1000 | Ac-RPPKR-NH2 [MH018, Ac-RPPKR-NH2]
> 1000 | Ac-PRPPK-NH2 [MH022, Ac-PRPPK-NH2]

Same assay, conditions: Sliding window peptide analysis; ITC, 25 °C, pH 8.0

Kd [µM] | Molecule
> 1000 | Ac-PPPPRP-NH2 [MH037, Ac-PPPPRP-NH2]

Same assay, conditions: exemplary control peptides; ITC, 25 °C, pH 8.0

Kd [µM] | Molecule
> 1000 | Ac-PAVPPRP-NH2 [MH082, Ac-PAVPPRP-NH2, reference compound]

Same assay, conditions: substitutions at position 1 of MD18; ITC, 25 °C, pH 8.0

Kd [µM] | Molecule
300 to 600 | Ac-LPRPPKR-NH2 [MH099, Ac-LPRPPKR-NH2]
≤ 300 | Ac-CPRPPKR-NH2 [MH070, Ac-CPRPPKR-NH2]
≤ 300 | Ac-HPRPPKR-NH2 [MH072, Ac-HPRPPKR-NH2]

Same assay, conditions: substitutions at position 3 of MD18; ITC, 25 °C, pH 8.0

Molecule | Kd [µM]
Ac-PPGPPKR-NH2 [MH092, Ac-PPGPPKR-NH2] | 600 to 1000
Ac-PPIPPKR-NH2 [MH096, Ac-PPIPPKR-NH2] | ≤ 300

More lines, now with the values ahead:

Kd [µM] | Molecule
≤ 300 | Ac-PPTPPKR-NH2 [MH114, Ac-PPTPPKR-NH2]
≤ 300 | Ac-PPDPPKR-NH2 [MH084, Ac-PPDPPKR-NH2]

Same assay, conditions: substitutions at position 4 of MD18 in a 7-mer; ITC, 25 °C, pH 8.0

Kd [µM] | Molecule
600 to 1000 | Ac-PPRFPKR-NH2 [MH067, Ac-PPRFPKR-NH2]
≤ 300 | Ac-PPRVPKR-NH2 [MH125, Ac-PPRVPKR-NH2]
> 1000 | Ac-PPRGPKR-NH2 [MH093, Ac-PPRGPKR-NH2]
300 to 600 | Ac-PPRYPKR-NH2 [MH121, Ac-PPRYPKR-NH2]

Same assay, conditions: substitutions at position 6 of MD18; ITC, 25 °C, pH 8.0

Kd [µM] | Molecule
≤ 300 | Ac-PPRPPIR-NH2 [MH098, Ac-PPRPPIR-NH2]
≤ 300 | Ac-PPRPPTR-NH2 [MH116, Ac-PPRPPTR-NH2]
≤ 300 | Ac-PPRPPRR-NH2 [MH048, Ac-PPRPPRR-NH2]

Same assay, conditions: substitutions at position 8 of the 8-mer MH063; ITC, 25 °C, pH 8.0; certain peptides tested one to three times

Molecule | Kd [µM]
Ac-PPRPPKRI-NH2 [MH063] | ≤ 300
Ac-PPRPPKRY-NH2 [MH155] | ≤ 300

Further lines, results first:

Kd [µM] | Molecule
≤ 300 | Ac-PPRPPKRM-NH2 [MH149]
≤ 300 | Ac-PPRPPKRL-NH2 [MH147]

Molecular target: T1, NCK1 SH3-2 domain
Assay: ITC
Details: not given

Molecule | Kd [µM]
Ac-NPRPPKR-NH2 [MH069] | < 300
Ac-HPRPPKR-NH2 [MH072] | < 300
Ac-LPRPPKR-NH2 [MH099] | < 600
Ac-IPRPPKR-NH2 [MH095] | < 300
Ac-YPRPPKR-NH2 [MH119] | < 300

The next lines start with the values.

Kd [µM] | Molecule
< 300 | Ac-KPRPPKR-NH2 [MH103]
< 300 | Ac-WPRPPKR-NH2 [MH117]
< 300 | Ac-SPRPPKR-NH2 [MH074]
< 300 | Ac-GPRPPKR-NH2 [MH091]

Molecular target: T1, NCK1 SH3-2 domain
Assay: ITC
Details: not given
Remark: another data set of the same source

Molecule | Kd [µM]
PRP [MH019] | > 1000
Ac-EHIPPPPRPPKR-NH2 [MH028] | < 300
Ac-PRPPK-NH2 [MH022] | > 1000
PKR [MH014] | > 1000

Results, then the molecule that gave them:

Kd [µM] | Molecule
< 300 | Ac-PPEHIPPPPRPPKR-NH2 [MH030]
< 300 | Ac-PPPRPPKR-NH2 [MH024]
< 300 | Ac-PEHIPPPPRPPKR-NH2 [MH029]
> 1000 | PPK [MH015]
> 1000 | Ac-RPPKR-NH2 [MH018]
> 1000 | Ac-RPPK-NH2 [MH016]
< 300 | Ac-PPPPRPPKR-NH2 [MH025]
> 1000 | RPP [MH020]
< 300 | Ac-IPPPPRPPKR-NH2 [MH026]
< 300 | Ac-HIPPPPRPPKR-NH2 [MH027]
> 1000 | Ac-PPKR-NH2 [MH017]
> 1000 | Ac-PRPP-NH2 [MH021]

Source: patent publication US20260365696A1, “INHIBITORS OF PTP1B / NCK1 INTERACTION AND METHODS OF MAKING AND USING SAME” (Radella Pharmaceuticals LLC, priority 2023, published 2026)
